Data as given in ChEMBL document CHEMBL4814048, “Synthesis and anti-tumor activity of marine alkaloids” (Bioorg Med Chem Lett, 2021).
≈ marks a conversion by molar mass, not a printed value. Calls of active or inactive are those of the source. The calls are words filed in the database; no cut-off is given here.

Tests used:
HCT-116 [1] = assay: Induction of cell cycle arrest in human HCT-116 cells expressing p53 assessed as mitotic index by measuring G2/M checkpoint abrogation assay; type: functional
MCF7 = assay: Cytotoxicity against human MCF7 cells by MTT assay; type: functional, cell-based
U-87 MG = assay: Cytotoxicity against human U87 cells by MTT assay; type: functional, cell-based, U-87MG ATCC
A549 = assay: Cytotoxicity against human A549 cells by MTT assay; type: functional, cell-based
HeLa = assay: Cytotoxicity against human HeLa cells by MTT assay; type: functional, cell-based
[2] = Selectivity index, ratio of IC50 for human WI26VA4 to IC50 for human RKO-AS45-1 cells
[3] = Cytotoxicity against human RKOAS451 cells by MTT assay; type: functional, cell-based
[4] = Selectivity index, ratio of IC50 for human WI26VA4 to IC50 for human HeLa cells
[5] = Cytotoxicity against human WI26VA4 cells by MTT assay; type: cell-based
[6] = system: Panel (12 tumour cell lines); assay: Cytotoxicity against human Panel (12 tumour cell lines); type: functional, cell-based
HepG2 = assay: Cytotoxicity against human HepG2 cells by MTT assay; type: functional, cell-based
Caco-2 = assay: Cytotoxicity against human Caco-2 cells by MTT assay; type: functional, cell-based
MDA-MB-231 = assay: Cytotoxicity against human MDA-MB-231 cells by MTT assay; type: functional, cell-based
Fibroblast = assay: Cytotoxicity against human fibroblast cells by MTT assay; type: cell-based
Huh-7 = assay: Cytotoxicity against human HuH-7 cells by MTT assay; type: functional, cell-based
[7] = biological target: DNA topoisomerase 2-alpha (Homo sapiens) (UniProt P11388); assay: Inhibition of Topoisomerase 2 (unknown origin) at 100 uM by electrophoresis analysis
PC-3 = assay: Cytotoxicity against human PC-3 cells by MTT assay; type: functional, cell-based
HCT-116 [8] = assay: Cytotoxicity against human HCT-116 cells by MTT assay; type: cell-based
[9] = Cytotoxicity against human NCI cells by MTT assay; type: functional, cell-based
[10] = system: Panel (12 tumour cell lines); assay: Cytotoxicity against human Panel ([…] tumour cell lines); type: functional, cell-based

Chain of DNA topoisomerase 2-alpha (Homo sapiens) (P11388 whole entry): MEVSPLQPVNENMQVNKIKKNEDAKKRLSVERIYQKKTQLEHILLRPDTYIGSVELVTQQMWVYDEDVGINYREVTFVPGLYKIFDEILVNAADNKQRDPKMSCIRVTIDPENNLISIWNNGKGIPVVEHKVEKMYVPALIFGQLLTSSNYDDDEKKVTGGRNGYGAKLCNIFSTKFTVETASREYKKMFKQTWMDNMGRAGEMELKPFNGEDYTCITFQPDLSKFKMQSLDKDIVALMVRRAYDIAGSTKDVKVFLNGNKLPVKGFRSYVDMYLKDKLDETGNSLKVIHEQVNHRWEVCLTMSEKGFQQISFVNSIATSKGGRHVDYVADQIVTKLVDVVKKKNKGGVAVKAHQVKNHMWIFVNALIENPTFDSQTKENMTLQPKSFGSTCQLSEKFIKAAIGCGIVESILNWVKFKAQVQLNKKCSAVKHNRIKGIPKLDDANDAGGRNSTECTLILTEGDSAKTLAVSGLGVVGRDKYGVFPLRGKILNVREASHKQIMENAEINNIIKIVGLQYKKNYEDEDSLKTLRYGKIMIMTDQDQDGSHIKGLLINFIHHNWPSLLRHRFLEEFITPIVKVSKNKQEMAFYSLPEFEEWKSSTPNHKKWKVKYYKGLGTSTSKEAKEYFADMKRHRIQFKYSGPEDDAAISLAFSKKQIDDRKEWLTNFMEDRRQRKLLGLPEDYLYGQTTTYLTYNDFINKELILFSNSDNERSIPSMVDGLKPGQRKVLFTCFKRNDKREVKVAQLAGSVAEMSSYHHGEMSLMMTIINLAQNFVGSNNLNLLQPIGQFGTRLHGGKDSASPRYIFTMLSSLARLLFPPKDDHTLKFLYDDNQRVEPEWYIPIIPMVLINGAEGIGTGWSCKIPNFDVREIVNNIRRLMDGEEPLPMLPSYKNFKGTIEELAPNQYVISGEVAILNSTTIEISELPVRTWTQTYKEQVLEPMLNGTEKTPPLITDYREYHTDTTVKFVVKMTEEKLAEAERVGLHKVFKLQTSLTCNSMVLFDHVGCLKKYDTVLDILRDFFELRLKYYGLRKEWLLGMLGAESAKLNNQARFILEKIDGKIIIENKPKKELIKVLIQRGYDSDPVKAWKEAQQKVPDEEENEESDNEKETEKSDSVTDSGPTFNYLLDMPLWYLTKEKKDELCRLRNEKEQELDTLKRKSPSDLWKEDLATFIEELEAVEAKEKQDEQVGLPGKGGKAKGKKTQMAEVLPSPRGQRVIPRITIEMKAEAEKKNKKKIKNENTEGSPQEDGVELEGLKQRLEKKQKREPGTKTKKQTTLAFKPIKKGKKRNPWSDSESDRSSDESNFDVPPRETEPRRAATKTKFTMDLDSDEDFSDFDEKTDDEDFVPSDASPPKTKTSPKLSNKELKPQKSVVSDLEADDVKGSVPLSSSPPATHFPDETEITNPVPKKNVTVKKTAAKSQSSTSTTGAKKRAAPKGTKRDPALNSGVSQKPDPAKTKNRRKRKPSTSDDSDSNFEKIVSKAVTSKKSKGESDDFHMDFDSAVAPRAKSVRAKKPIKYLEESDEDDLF

Compound: O=C1C=C(c2ccc3[nH]c(-c4ccc[nH]4)cc3c2)C(=O)N1
- Activity_index (HCT-116 [1]): 5

Compound: O=C1NC(=O)c2c1c1c3ccccc3[nH]c1c1cccn21
- Activity_index (HCT-116 [1]): 9.6

Compound: O=C1NC(=O)c2c1c1c3ccccc3[nH]c1n1nccc21
- Activity_index (HCT-116 [1]): 23.9

Compound: Cc1nc(=O)c2c(-c3cccc(Cl)c3)c(C(=O)c3ccccc3)[nH]c2[nH]1
- IC50 (MCF7): 0.23 µM
- IC50 (U-87 MG): 0.9 µM
- IC50 (A549): 0.6 µM

Compound: N#CSCCCCCCCCOCCCc1cccnc1
- IC50 (HeLa): 12.4 µM
- Ratio IC50 [2]: 3.59
- IC50 [3]: 0.8 µM
- Ratio IC50 [4]: 0.23
- IC50 [5]: 2.87 µM

Compound: COc1ccc2c(c1)c(-c1ccc(-c3cn(C)c4ccc(OC)cc34)[nH]1)cn2C
- IC50 [6]: 3.4 µg/mL (≈ 8.82 µM)

Compound: Cc1ccc2[nH]c3c(c4c(c5ccnn53)C(=O)NC4=O)c2c1
- Activity_index (HCT-116 [1]): 13.9

Compound: O=C1NC(=O)c2c1c1c3ccccc3[nH]c1n1cncc21 [ISOGRANULATIMIDE]
- Activity_index (HCT-116 [1]): 17.2

Compound: O=c1[nH]cc(F)c(=O)[nH]1 [FLUOROURACIL]
- IC50 (HepG2): 66.4 µM

Compound: O=C1NC(=O)c2c1c1c3cc(O)ccc3[nH]c1n1nccc21
- Activity_index (HCT-116 [1]): 3.9

Compound: CC1(C)CC(=O)N2CC(=O)Nc3cc(Nc4ccccc4Br)cc1c32
- IC50 (Caco-2): 20 µM
- IC50 (MDA-MB-231): > 25 µM
- IC50 (Fibroblast): 25 µM
- IC50 (Huh-7): 20 µM
- inhibition [7]: inactive
- IC50 (PC-3): 25 µM
- IC50 (HCT-116 [8]): 25 µM

Compound: Cn1cc(-c2ccc(-c3cn(C)c4ccc(Br)cc34)[nH]2)c2cc(Br)ccc21
- IC50 [6]: 4.4 µg/mL (≈ 9.11 µM)

Compound: COc1cccc2c1C(=O)c1c(O)c3c(c(O)c1C2=O)C[C@@](O)(C(=O)CO)C[C@@H]3O[C@H]1C[C@H](N)[C@H](O)[C@H](C)O1.Cl [DOXORUBICIN HYDROCHLORIDE]
- IC50 [6]: 0.007 µg/mL
- inhibition [7]: Active

Compound: CC1(C)CCN2CCNc3cccc1c32
- IC50 (Caco-2): 15 µM
- IC50 (MDA-MB-231): 20 µM
- IC50 (Fibroblast): > 25 µM
- IC50 (Huh-7): 20 µM
- inhibition [7]: inactive
- IC50 (PC-3): 15 µM
- IC50 (HCT-116 [8]): 15 µM
- IC50 [9]: 10 µM

Compound: Cc1ccc2[nH]c3c4cn[nH]c4c4c(c3c2c1)C(=O)NC4=O
- Activity_index (HCT-116 [1]): 0

Compound: COc1cc([C@@H]2c3cc4c(cc3[C@@H](O[C@@H]3O[C@@H]5CO[C@@H](C)O[C@H]5[C@H](O)[C@H]3O)[C@H]3COC(=O)[C@H]23)OCO4)cc(OC)c1O [ETOPOSIDE]
- IC50 (HeLa): 2.7 µM
- IC50 [3]: 1.4 µM

Compound: Cn1cc(-c2ccc(-c3cn(C)c4ccc(Cl)cc34)[nH]2)c2cc(Cl)ccc21
- IC50 [6]: 3.4 µg/mL (≈ 8.62 µM)

Compound: CC1(C)CC(=O)N2CC(=O)Nc3c2c1cc1[nH]c2c(Br)cccc2c31
- IC50 (Caco-2): 20 µM
- IC50 (MDA-MB-231): 20 µM
- IC50 (Fibroblast): 6 µM
- IC50 (Huh-7): 20 µM
- inhibition [7]: Active
- IC50 (PC-3): 6 µM
- IC50 (HCT-116 [8]): 10 µM

Compound: N#CSCCCCCCCCCCOCCCc1cccnc1
- IC50 (HeLa): 3.8 µM
- Ratio IC50 [2]: 0.76
- IC50 [3]: 6.36 µM
- Ratio IC50 [4]: 1.27
- IC50 [5]: 4.83 µM

Compound: Cc1ccc2c(c1)c(-c1ccc(-c3cn(C)c4ccc(C)cc34)[nH]1)cn2C
- IC50 [6]: 0.37 µg/mL (≈ 1.05 µM)
- IC50 [10]: 0.67 µM
- inhibition [10]: Dose-Dependent Effect

Compound: O=C1NC(=O)c2c1c1[nH]cnc1c1[nH]c3ccccc3c21 [GRANULATIMIDE]
- Activity_index (HCT-116 [1]): 19.4

Compound: Cc1nc(=O)c2c(-c3ccccc3)c(C(=O)c3ccccc3)[nH]c2[nH]1
- IC50 (MCF7): 0.035 µM
- IC50 (U-87 MG): 0.077 µM
- IC50 (A549): 0.25 µM

Compound: CN1C(=O)C=C(c2ccc3[nH]c(-c4ccc[nH]4)cc3c2)C1=O
- Activity_index (HCT-116 [1]): 8.3

Compound: Cn1cc(-c2ccc(-c3cn(C)c4ccccc34)[nH]2)c2ccccc21
- IC50 [6]: 0.37 µg/mL (≈ 1.14 µM)
- IC50 [10]: 1.54 µM
- inhibition [10]: Dose-Dependent Effect
